# PubChem BioAssay AID2060601 (Molecular Pharmacology Branch, DTP, NCI, 2025)
# System: 874868-142-R-J2-PDC complex spheroids, growth % test/control
# Experiment: Anticancer human tumor 874868-142-R-J2-PDC patient-derived head and neck squamous carcinoma cell line growth inhibition [CLK]
# Conditions: for IC50: curve of first compound; for viability, T/C: stronger effect = lower value
# Excerpt: A high-throughput screen of multi-cell type tumor spheroids was designed to identify active combinations of […] and targeted small molecules. Complex spheroids include a stromal component modeled by human endothelial cells (HUVEC) and fibroblasts modeled by human mesenchymal stem cells (MSCs). The concentration ranges selected for each drug and investigational agent were based upon clinically achievable concentrations if the clinical Cmax of the agent was known.
# Compounds. The drugs and investigational agents: cirtuvivint (SM08502; NSC835563), CC-671 (NSC850746), vemurafenib (NSC761431), tapotoclax (NSC804041), sotorasib (NSC818433), adagrasib (NSC831453), MRTX-1133 (NSC836407), BAY2416964 (NSC825713), copanlisib (NSC816437), inavolisib (NSC800729), abemaciclib (NSC768073), osimertinib (NSC779217), entinostat (NSC756642), eltanexor (KPT-8602, NSC794443), venetoclax (NSC766270), ceralasertib (NSC777638), bortezomib (NSC756655), olaparib (NSC753686), talazoparib (NSC767125), alisertib (NSC759677), peposertib (NSC802822), gemcitabine (NSC613327), 5-fluorouracil (NSC19893), SN-38 (NSC673596), oxaliplatin (NSC266046), paclitaxel (NSC125973), and doxorubicin (NSC123127), were obtained from the National Cancer Institute (NCI) Developmental Therapeutics Program Chemical Repository. The FDA-approved anticancer drug set is available from the Developmental Therapeutics Program at https://dtp.cancer.gov/organization/dscb/obtaining/available plates.htm. […] The stock solutions were prepared in dimethyl sulfoxide (DMSO, Sigma-Aldrich, St. Louis, MO, cat. D2650), except for the platinum complexes which were prepared in saline (Quality Biological, Gaithersburg, MD, cat. 114-055-101), at 800-fold the tested concentration and stored at -70 degrees C prior to their use. All drugs and investigational agents were tested over a range starting from a high concentration at or near the clinical Cmax and decreasing in half-log increments. If the clinical Cmax for an agent had not been determined, the highest concentration tested was 10 microM.
# Cell Culture. All cells were maintained in an incubator at 37 degrees C and 5% CO2 with 95% humidity. The PDC lines were cultured according to standard operating procedures established by the NCI PDMR. Briefly, all PDCs were thawed and cultured in Matrigel-coated flasks prepared with a working solution of 1X Ham's F-12 nutrient mix, without supplementation (Invitrogen, Waltham, MA, cat. 11765054), 100 U/mL penicillin-streptomycin (Invitrogen, cat. 15140122), and 2.5% Matrigel (Corning Inc., Corning, NY, cat. 354248) for the first three passages. The 947758-054-R-J2-PDC line was cultured in 6B/Colon 1A media, which includes advanced DMEM/F-12 (Thermo Fisher Scientific, cat. 12634028), 10 mM HEPES (Thermo Fisher Scientific, cat. 15630080), 1X GlutaMAX supplement (Thermo Fisher Scientific, cat. 35050061), 0.1 mg/mL primocin (InvivoGen, cat. ant-pm-2), 10% defined fetal bovine serum, heat inactivated (HyClone Laboratories Inc., cat. SH30070.03HI), 1.25 mM N-Acetyl-L-cysteine (Sigma-Aldrich, cat. A9165), 10 mM nicotinamide (Sigma-Aldrich, cat. N0636), 1X B-27 supplement (Thermo Fisher Scientific, cat. 17504044), 1X N-2 supplement (Thermo Fisher Scientific, cat. 17502048), and 10 microM Y-27632 dihydrochloride (Tocris Bioscience, cat. 1254). The 876862-298-R-J1-PDC was cultured in 6E media, which includes all 6B/Colon 1A media components plus 50% L-WRN conditioned media (ATCC, cat. CRL-3276), 50 ng/mL recombinant human EGF recombinant protein (hEGF; Thermo Fisher Scientific, cat. PHG0311), 10 ng/mL recombinant human fibroblast growth factor 10 (hGFG-10; PeproTech, cat. 100-26), 1 ng/mL recombinant human fibroblast growth factor 2 (hFGF-2; PeproTech, cat. 100-18B), and 1 µM prostaglandin E2 (PGE2; Tocris, cat. 2296). The 227483-062-R1-J1-PDC line was cultured in Panc media, containing all 6E components except hFGF-2, with the addition of 500 nM SB-431542 (Selleckchem, cat. S1067) and 10 nM gastrin (Tocris, cat. 3006). […]
# [1] = second compound 0.0316 µM, first compound 0.0316 µM
# [2] = second compound 0.0316 µM, first compound 0.1 µM
# [3] = second compound 0.0316 µM, first compound 0.316 µM
# [4] = second compound 0.0316 µM, first compound 1 µM
# [5] = second compound 0.0316 µM, first compound 3.16 µM
# [6] = second compound 0.0316 µM, first compound 10 µM
# [7] = second compound 0.1 µM, first compound 0.0316 µM
# [8] = second compound 0.1 µM, first compound 0.1 µM
# [9] = second compound 0.1 µM, first compound 0.316 µM
# [10] = second compound 0.1 µM, first compound 1 µM
# [11] = second compound 0.1 µM, first compound 3.16 µM
# [12] = second compound 0.1 µM, first compound 10 µM
# [13] = second compound 0.316 µM, first compound 0.0316 µM
# [14] = second compound 0.316 µM, first compound 0.1 µM
# [15] = second compound 0.316 µM, first compound 0.316 µM
# [16] = second compound 0.316 µM, first compound 1 µM
# [17] = second compound 0.316 µM, first compound 3.16 µM
# [18] = second compound 0.316 µM, first compound 10 µM
# [19] = second compound 1 µM, first compound 0.0316 µM
# [20] = second compound 1 µM, first compound 0.1 µM
# [21] = second compound 1 µM, first compound 0.316 µM
# [22] = second compound 1 µM, first compound 1 µM
# [23] = second compound 1 µM, first compound 3.16 µM
# [24] = second compound 1 µM, first compound 10 µM
# [25] = second compound 3.16 µM, first compound 0.0316 µM
# [26] = second compound 3.16 µM, first compound 0.1 µM
# [27] = second compound 3.16 µM, first compound 0.316 µM
# [28] = second compound 3.16 µM, first compound 1 µM
# [29] = second compound 3.16 µM, first compound 3.16 µM
# [30] = second compound 3.16 µM, first compound 10 µM
# [31] = second compound 10 µM, first compound 0.0316 µM
# [32] = second compound 10 µM, first compound 0.1 µM
# [33] = second compound 10 µM, first compound 0.316 µM
# [34] = second compound 10 µM, first compound 1 µM
# [35] = second compound 10 µM, first compound 3.16 µM
# [36] = second compound 10 µM, first compound 10 µM
# 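Note: spheroids exposed to the compounds for 7 days.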
structure (smiles),measurement,setting,value
CCCS(=O)(=O)Nc1ccc(F)c(C(=O)c2c[nH]c3ncc(-c4ccc(Cl)cc4)cc23)c1F + CNC(=O)c1ccc(Nc2nc(OC3CCCC3)c3c(-c4ccc5nc(C)oc5c4)c[nH]c3n2)c(OC)c1,IC50,second compound 0.0316 µM,> 10000 nM
same,IC50,second compound 0.1 µM,> 10000 nM
same,IC50,second compound 0.316 µM,> 10000 nM
same,IC50,second compound 1 µM,< 31.6 nM
same,IC50,second compound 3.16 µM,< 31.6 nM
same,IC50,second compound 10 µM,< 31.6 nM
same,"viability, T/C",[1],119%
same,"viability, T/C",[2],122%
same,"viability, T/C",[3],133%
same,"viability, T/C",[4],143%
same,"viability, T/C",[5],139%
same,"viability, T/C",[6],87.8%
same,"viability, T/C",[7],101%
same,"viability, T/C",[8],104%
same,"viability, T/C",[9],110%
same,"viability, T/C",[10],144%
same,"viability, T/C",[11],140%
same,"viability, T/C",[12],84.6%
same,"viability, T/C",[13],62.2%
same,"viability, T/C",[14],59.6%
same,"viability, T/C",[15],59.6%
same,"viability, T/C",[16],61.8%
same,"viability, T/C",[17],67.9%
same,"viability, T/C",[18],53.2%
same,"viability, T/C",[19],40.9%
same,"viability, T/C",[20],38.2%
same,"viability, T/C",[21],46.8%
same,"viability, T/C",[22],54.9%
same,"viability, T/C",[23],49.3%
same,"viability, T/C",[24],45.3%
same,"viability, T/C",[25],41.2%
same,"viability, T/C",[26],38%
same,"viability, T/C",[27],41.8%
same,"viability, T/C",[28],38.8%
same,"viability, T/C",[29],53.8%
same,"viability, T/C",[30],32%
same,"viability, T/C",[31],38.8%
same,"viability, T/C",[32],44.1%
same,"viability, T/C",[33],50.2%
same,"viability, T/C",[34],37.6%
same,"viability, T/C",[35],52.4%
same,"viability, T/C",[36],45.2%
COC1C=CCC(C)C(C)S(=O)(=O)NC(=O)c2ccc3c(c2)N(CC2CCC21)CC1(CCCc2cc(Cl)ccc21)CO3 (stereo unspecified) + CN1CCN(c2cc(C(=O)Nc3cc4cc(-c5cnn(C)c5)ccc4cn3)ccn2)CC1,IC50,second compound 0.0316 µM,1390 nM
same,IC50,second compound 0.1 µM,1150 nM
same,IC50,second compound 0.316 µM,< 31.6 nM
same,IC50,second compound 1 µM,< 31.6 nM
same,IC50,second compound 3.16 µM,< 31.6 nM
same,IC50,second compound 10 µM,< 31.6 nM
same,"viability, T/C",[1],101%
same,"viability, T/C",[2],93.2%
same,"viability, T/C",[3],66.2%
same,"viability, T/C",[4],60.8%
same,"viability, T/C",[5],34.7%
same,"viability, T/C",[6],18.2%
same,"viability, T/C",[7],77.1%
same,"viability, T/C",[8],74.3%
same,"viability, T/C",[9],65.2%
same,"viability, T/C",[10],56.1%
same,"viability, T/C",[11],15.2%
same,"viability, T/C",[12],8.09%
same,"viability, T/C",[13],21.6%
same,"viability, T/C",[14],14.9%
same,"viability, T/C",[15],11.8%
same,"viability, T/C",[16],6.03%
same,"viability, T/C",[17],6.07%
same,"viability, T/C",[18],5.99%
same,"viability, T/C",[19],0.48%
same,"viability, T/C",[20],0.33%
same,"viability, T/C",[21],1.14%
same,"viability, T/C",[22],0.2%
same,"viability, T/C",[23],2.7%
same,"viability, T/C",[24],1.73%
same,"viability, T/C",[25],0.85%
same,"viability, T/C",[26],0.74%
same,"viability, T/C",[27],0.27%
same,"viability, T/C",[28],0.44%
same,"viability, T/C",[29],0.33%
same,"viability, T/C",[30],1.12%
same,"viability, T/C",[31],0.79%
same,"viability, T/C",[32],0.24%
same,"viability, T/C",[33],0.61%
same,"viability, T/C",[34],0.22%
same,"viability, T/C",[35],1.51%
same,"viability, T/C",[36],0.24%
Cn1ncnc1[C@H]1c2n[nH]c(=O)c3cc(F)cc(c23)N[C@@H]1c1ccc(F)cc1 + CN1CCN(c2cc(C(=O)Nc3cc4cc(-c5cnn(C)c5)ccc4cn3)ccn2)CC1,IC50,second compound 0.0316 µM,> 100 nM
same,IC50,second compound 0.1 µM,91.4 nM
same,IC50,second compound 0.316 µM,< 0.316 nM
same,IC50,second compound 1 µM,< 0.316 nM
same,IC50,second compound 3.16 µM,< 0.316 nM
same,IC50,second compound 10 µM,< 0.316 nM
same,"viability, T/C","second compound 0.0316 µM, first compound 0.000316 µM",99.4%
same,"viability, T/C","second compound 0.0316 µM, first compound 0.001 µM",83.8%
same,"viability, T/C","second compound 0.0316 µM, first compound 0.00316 µM",80%
same,"viability, T/C","second compound 0.0316 µM, first compound 0.01 µM",89.2%
same,"viability, T/C",[1],62.2%
same,"viability, T/C",[2],68.2%
same,"viability, T/C","second compound 0.1 µM, first compound 0.000316 µM",83.9%
same,"viability, T/C","second compound 0.1 µM, first compound 0.001 µM",70.3%
same,"viability, T/C","second compound 0.1 µM, first compound 0.00316 µM",69.8%
same,"viability, T/C","second compound 0.1 µM, first compound 0.01 µM",66.6%
same,"viability, T/C",[7],43.8%
same,"viability, T/C",[8],53.8%
same,"viability, T/C","second compound 0.316 µM, first compound 0.000316 µM",17.1%
same,"viability, T/C","second compound 0.316 µM, first compound 0.001 µM",17.7%
same,"viability, T/C","second compound 0.316 µM, first compound 0.00316 µM",16.2%
same,"viability, T/C","second compound 0.316 µM, first compound 0.01 µM",11.9%
same,"viability, T/C",[13],18.8%
same,"viability, T/C",[14],15.2%
same,"viability, T/C","second compound 1 µM, first compound 0.000316 µM",0.34%
same,"viability, T/C","second compound 1 µM, first compound 0.001 µM",0.36%
same,"viability, T/C","second compound 1 µM, first compound 0.00316 µM",0.3%
same,"viability, T/C","second compound 1 µM, first compound 0.01 µM",0.19%
same,"viability, T/C",[19],0.26%
same,"viability, T/C",[20],0.38%
same,"viability, T/C","second compound 3.16 µM, first compound 0.000316 µM",0.15%
same,"viability, T/C","second compound 3.16 µM, first compound 0.001 µM",0.17%
same,"viability, T/C","second compound 3.16 µM, first compound 0.00316 µM",0.15%
same,"viability, T/C","second compound 3.16 µM, first compound 0.01 µM",0.18%
same,"viability, T/C",[25],0.12%
same,"viability, T/C",[26],0.29%
same,"viability, T/C","second compound 10 µM, first compound 0.000316 µM",0.11%
same,"viability, T/C","second compound 10 µM, first compound 0.001 µM",0.2%
same,"viability, T/C","second compound 10 µM, first compound 0.00316 µM",0.16%
same,"viability, T/C","second compound 10 µM, first compound 0.01 µM",0.18%
same,"viability, T/C",[31],0.2%
same,"viability, T/C",[32],0.2%
